In patent publication US20090298889A1, “PHARMACEUTICAL COMPOSITIONS CONTAINING 2-PYRIDONE DERIVATIVES AS EFFECTIVE COMPONENTS” (SATO PHARMACEUTICAL CO., LTD., priority 2005, published 2009):

Key:
[1] = system: neutrophil infiltration (MPO activity); assay: Effect on zymosan-induced neutrophil infiltration (MPO activity of peritoneal fluid); format: in vivo, ICR mice; details: 30 mg/kg body weight orally, FIG. 1; for MPO activity with respect to the vehicle: 1 hour before intra-peritoneal zymosan, peritoneal fluid after 3 hours
Procedure: Each candidate compound was administered to 6-week-old male ICR mice, which had been fasted from the day before the initiation of this test. Each candidate compound was suspended in a 3% dimethylsulfoxide/carboxymethyl cellulose sodium solution and the resulting suspension was administered to the mice at a dose of 30 mg/kg body weight/10 mL. After the elapse of one hour, 1 mL of a 0.01% solution of zymosan in physiological saline was intra-peritoneally administered. After 3 hours, 5 mL of physiological saline was intra-peritoneally administered and the test animals were lightly massaged for 30 seconds. The abdominal wall of the test animals were slightly incised to thus collect the peritoneal fluid using a Pasteur pipette. Thereafter, the fluid thus recovered was centrifuged (at 20,000 g, for 20 minutes, at 4° C.), the resulting pellets were washed with a 50 mM sodium phosphate buffer (pH 6.0) and then again centrifuged. To the pellets thus recovered, there was added 0.5% hexadecyl trimethyl ammonium bromide (HTAB) and then centrifuged to thus give a supernatant, which was subsequently used as an enzyme source. To 15 μL of the enzyme source, there were added 200 μL of a 1.154 mM o-di-anisidine and 50 μL of a 0.005% hydrogen peroxide solution and then the optical densities at 450 nm (OD450) were determined to thus calculate the difference: (OD450 observed after 90 seconds from the initiation of the reaction)−(OD450 observed after 30 seconds from the initiation of the reaction), which was herein defined to be MPO activity. In this connection, the MPO activity was calculated, while defining the activity required for increasing the OD450 value by 0.001 as one unit. The MPO activity is herein defined to be the activity of the enzyme present in the neutrophils and accordingly, the reduction in the MPO activity means the inhibition of the neutrophil-infiltration. The results thus obtained are plotted on FIG. 1. […]

neutrophils = assay: Test for examining cell adhesion-inhibitory effect (TNF-α-stimulated neutrophil adhesion to keyhole limpet hemocyanin-coated plate, Alamar blue fluorescence); format: cell-based, human (healthy person); details: 0.5 h, human neutrophils stimulated with TNF-α 10 ng/mL, 37° C. 30 minutes, Probit technique, read-out: IC50 (50%-inhibitory concentration of cell adhesion)
Procedure: To a 96-well culture plate coated, in advance, with keyhole limpet hemocyanin, there was added 0.05 mL each of a solution of a candidate test compound in dimethylsulfoxide diluted to a final dimethylsulfoxide concentration of 1% with DMEM. A blood sample was collected from a healthy person through the median vein of elbow and the neutrophils were fractionated or isolated through the use of Mono-Poly Separation Liquid and the centrifugation. The fractionated neutrophils were suspended in DMEM to a concentration of 1×10^6 cells/mL and 0.1 mL of the resulting neutrophil-containing suspension was added to each well of the culture plate. Moreover, 40 ng/mL of tumor-necrosis factor (TNF)-α was diluted with DMEM to a final concentration of 10 ng/mL and 0.05 mL of the resulting diluted solution was added to each well of the culture plate. After the culture plate was allowed to stand at 37° C. for 30 minutes in a CO2-incubator, the plate was washed three times (thrice) with 0.2 mL of phosphate-buffered physiological saline (PBS(−), available from GIBCO Corporation). In addition, to each well, there was added 0.1 mL of a 10% solution of Alamar blue in DMEM, the culture plate was allowed to stand at 37° C. for 3 hours in a CO2-incubator, and then the intensity of fluorescent rays emitted from the adhered neutrophil cells was determined (Ex: 544 nm; Em: 590 nm). In this respect, the sample group free of any stimulation was defined to be the non-adhesion control group and the sample group stimulated with TNF-α was referred to as the adhesion control group to thus determine or calculate the cell adhesion-inhibitory rate of the compound of the present invention at each concentration, and the 50%-inhibitory concentration (IC50) was calculated from the cell adhesion-inhibitory rates thus determined according to the Probit technique. The same test procedures used above were repeated except for using different kinds of candidate compounds.

[2] = Toxicity test by administration of one time (single dose); details: mouse, in vivo
Text: Test Animals Used: ICR Male Mice (5-Week-Old):
They were purchased and then preliminarily kept over one week, prior to the practical use thereof in this test.
Each test group comprised 5 animals.
Inspected Items: Appearance (such as death, weakening); Physical Conditions (such as the presence of lateral turning); Consciousness (such as excitation, lethargy (coma)); Behaviors (such as convulsions); Properties of fecal matters; and Foreign matters present in the urine.

| melting point [°C] | SMILES | IC50 (neutrophils) [nM] | further results |
| --- | --- | --- | --- |
| 166.5 to 167.4 | CC(=O)c1cn(-c2ccccc2)c(=O)c(Br)c1C [Compound 70, 5-acetyl-3-bromo-4-methyl-1-phenyl-1H-pyridin-2-one] | – | – |
| – | CC(=O)c1c(C)c(Sc2ccc(F)cc2)c(=O)n(-c2ccccc2)c1C [Compound 62, 5-acetyl-3-(4-fluoro-phenylthio)-4,6-dimethyl-1-phenyl-1H-pyridin-2-one] | 569 | MPO activity with respect to the vehicle [1]: decreases in the MPO activity; neutrophil infiltration-inhibitory effect ([1]; zymosan-induced model): excellent neutrophil infiltration-inhibitory effects |
| 215.4 to 216.8 | CC(=O)c1cn(-c2ccccc2)c(=O)c(C#N)c1C [Compound 71, 5-acetyl-4-methyl-2-oxo-1-phenyl-1,2-di-hydro-pyridine-3-carbonitrile] | – | – |
| – | CC(=O)c1cn(-c2ccccc2)c(=O)c(Sc2ccc(F)cc2)c1C [Compound 1, 5-acetyl-3-(4-fluorophenylthio)-4-methyl-1-phenyl-1H-pyridin-2-one] | 400 | MPO activity with respect to the vehicle [1]: decreases in the MPO activity; Result of single dose toxicity test (death, severe side-effect) [2]: All of the test animals were not died |
| – | Cc1c(C(C)O)cn(-c2ccccc2)c(=O)c1Sc1ccc(F)cc1 (stereo not drawn) [Compound 77, 3-(4-Fluoro-phenylthio)-5-(1-hydroxyethyl)-4-methyl-1-phenyl-1H-pyridin-2-one] | 980 | – |
| 116.8 to 118.7 | CCc1cn(-c2ccccc2)c(=O)c(Sc2ccc(F)cc2)c1C [Compound 80, 5-Ethyl-3-(4-fluoro-phenylthio)-4-methyl-1-phenyl-1H-pyridin-2-one] | – | – |
| 184.5 to 185.3 | CC(=O)c1cn(-c2ccccc2)c(=O)c(Sc2ncccn2)c1C [Compound 74, 5-Acetyl-4-methyl-1-phenyl-3-(pyrimidin-2-yl-thio)-1H-pyridin-2-one] | – | – |
| 236 to 238 | CC(=O)c1c[nH]c(=O)c(Sc2ccc(F)cc2)c1C [Compound 42, 5-acetyl-3-(4-fluoro-phenylthio)-4-methyl-1H-pyridin-2-one] | – | – |
